Data published in patent publication US9771372B2, “Compounds useful as S100-inhibitors” (Active Biotech AB, priority 2014, dated 2017).

What follows are molecules tested against T1, interaction between biotinylated human S100A9 and human RAGE-Fc (Homo sapiens, UniProt P06702) (assay: AlphaScreen inhibition assay, Biot-hS100A9:hRAGE-Fc (S100A9-RAGE inhibition assay)). Settings: biot-hS100A9 and rhRAGE-Fc, Ca2+ and Zn2+ in buffer.
T1 construct: made in house; host or cells: E. coli BL21(DE3)/pET1120 (pLR757)
T1 sequence (P06702 1-114): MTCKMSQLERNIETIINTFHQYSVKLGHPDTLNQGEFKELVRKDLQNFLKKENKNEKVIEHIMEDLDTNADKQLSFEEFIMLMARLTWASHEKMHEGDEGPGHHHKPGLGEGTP
Type: binding
Excerpt: FIG. 1 is a schematic representation of an assay of the inhibition of the interaction between biotinylated human S100A9 and human RAGE-Fc using a small molecule S100A9 binder.
Inhibition Assay, Biot-hS100A9:hRAGE-Fc
The AlphaScreen (Amplified Luminescent Proximity Homogeneous Assay) contains two types of beads, Alpha Donor beads and Acceptor beads (PerkinElmer). Upon laser excitation at 680 nm a photosensitizer in the Donor bead converts ambient oxygen to a more excited singlet state. The singlet oxygen molecule diffuses (maximum 200 nm) to react with a thioxene derivative in the Acceptor bead and generates a chemiluminescence reaction. Fluorophores in the Acceptor bead subsequently emit light at 520-620 nm which can be detected in the EnVision® Multilabel plate Reader (PerkinElmer). The beads are light sensitive and all work with the beads is performed under subdued light conditions or using green filters on light sources (Roscolux Chroma Green #389, Rosco).
In the AlphaScreen Inhibition Assay described here, protein A (Staphylococcus aureus) conjugated Acceptor beads are used together with streptavidin coated Donor beads (Perkin Elmer 6760617M). The Acceptor beads are pre-incubated with Fc-tagged recombinant human RAGE (rhRAGE-Fc) allowing binding of the rhRAGE-Fc to protein A on the beads. Biotinylated human S100A9 (biot-hS100A9) is pre-incubated with the low molecular test compounds. The pre-mixes are then added to the wells of a micro-plate and incubated allowing interaction between biot-hS100A9 and rhRAGE-Fc. Subsequent addition of streptavidin coated Donor beads causes binding of the streptavidin to the biotinylated hS100A9. After an additional incubation the signal is measured.
Without inhibitory compounds, the interaction of biot-hS100A9 to rhRAGE-Fc will bring the Acceptor and Donor beads in close proximity thus generating a high signal. With an inhibitor present the complex will not form resulting in a decreased signal.
The AlphaScreen assay method is used for screening of the inhibitory effect of different compound samples at fixed concentrations or for IC50 determination by varying the compound concentrations. Samples of test compounds and references are prepared from solutions in DMSO. Relevant reference inhibitors and DMSO are used as controls for defined inhibition and non-inhibition, respectively in the assay. The percent inhibition in assay for test compounds and references are calculated by comparing their obtained assay signals with the signal values for the control with only DMSO (no compound).
Assay concentration of biotinylated hS100A9 and rhRAGE-Fc are batch dependent, and are determined and defined by separate cross-titration experiments using this AlphaScreen inhibition method to verify the optimal setup regarding signal strength and achievement of a defined inhibition with relevant reference compounds. The Final assay concentrations of Acceptor and Donor beads are 20 μg/mL.
Assay buffer is prepared by adding CaCl2 and ZnCl2 to HBS-P and is used freshly prepared in the experiment.
Biotin-hS100A9 solution for the experiment is prepared by dilution of appropriate amount of stock solution biot-hS100A9 in assay buffer (with CaCl2 and ZnCl2) and incubation in room temperature for 30 minutes.
rhRAGE-Fc solution for the experiment is prepared by dilution appropriate amount of rhRAGE-Fc stock in assay buffer.
Protein A Acceptor beads are diluted in assay buffer and are added to an equal volume of the prepared diluted rhRAGE-Fc solution. The beads are light sensitive. The vial is covered with aluminum foil and incubated at room temperature in the dark until biot-hS100A9+compound incubation is finished (see below).
Streptavidin-coated Donor beads are diluted in assay buffer. The beads are very light sensitive. The vial is covered with aluminum foil and incubated at room temperature in the dark until use (see below).
Samples of test compounds, appropriate references and DMSO control are diluted in assay buffer. […]

IC50 [nM]	SMILES
920	O=C(CCC1CCCC1)NC1(C(F)(F)F)C(=O)Nc2nc3c(-c4nnn[nH]4)cccc3n21 (stereo not drawn) [Example 199, 3-cyclopentyl-N-[4-oxo-9-(1H-1,2,3,4-tetrazol-5-yl)-3-(trifluoromethyl)-2,5,7-triazatricyclo[6.4.0.0^2,6]dodeca-1(12),6,8,10-tetraen-3-yl]propanamide]
7400	Cc1ccc2c(nc3n2C(NC(=O)CCC2CCCC2)(C(F)(F)F)C(=O)N3)c1C (stereo not drawn) [Example 80, 3-cyclopentyl-N-[9,10-dimethyl-4-oxo-3-(trifluoromethyl)-2,5,7-triazatricyclo[6.4.0.0^2,6]-dodeca-1(12),6,8,10-tetraen-3-yl]propanamide]
660	O=C(CCC1CCCC1)NC1(C(F)(F)F)C(=O)Nc2nc3c(C(=O)O)cccc3n21 (single isomer, unassigned) [Example 231a, 3-(3-cyclopentylpropanamido)-4-oxo-3-(trifluoromethyl)-2,5,7-triazatricyclo[6.4.0.0^2,6]dodeca-1(12),6,8,10-tetraene-9-carboxylic acid]
6400	O=C(CCC1CCCC1)NC1(C(F)(F)F)C(=O)Nc2nc3c(F)cc(F)cc3n21 (stereo not drawn) [Example 86, 3-cyclopentyl-N-[9,11-difluoro-4-oxo-3-(trifluoromethyl)-2,5,7-triazatricyclo-[6.4.0.0^2,6]dodeca-1(12),6,8,10-tetraen-3-yl]propanamide]
1340	O=C(CCC1CCCC1)NC1(C(F)(F)F)C(=O)Nc2nc3c(-c4ccc(Cl)c(Cl)c4)cccc3n21 (stereo not drawn) [Example 203, 3-cyclopentyl-N-[9-(3,4-dichlorophenyl)-4-oxo-3-(trifluoromethyl)-2,5,7-triazatricyclo[6.4.0.0^2,6]dodeca-1(12),6,8,10-tetraen-3-yl]propanamide]
1270	O=C(CCC1CCCC1)NC1(C(F)(F)F)C(=O)Nc2nc3c(-c4ccccc4)cccc3n21 (stereo not drawn) [Example 195, 3-cyclopentyl-N-[4-oxo-9-phenyl-3-(trifluoromethyl)-2,5,7-triazatricyclo[6.4.0.0^2,6]dodeca-1(12),6,8,10-tetraen-3-yl]propanamide]

The next lines start with the molecule.

SMILES	IC50 [nM]
Cc1cc2nc3n(c2cc1C)C(NC(=O)[C@H](C)OCC1CCCC1)(C(F)(F)F)C(=O)N3 (single isomer, unassigned) [Example 215a]	1440
O=C(NC1(C(F)(F)F)C(=O)Nc2nc3cc(Cl)c(Cl)cc3n21)c1cc(Cl)cc(Cl)c1 (stereo not drawn) [Example 57, 3,5-dichloro-N-[10,11-dichloro-4-oxo-3-(trifluoromethyl)-2,5,7-triazatricyclo-[6.4.0.0^2,6]dodeca-1(12),6,8,10-tetraen-3-yl]benzamide]	2800
COCCNc1nc(C(=O)NC2(C(F)(F)F)C(=O)Nc3nc4c(C#N)c(Cl)ccc4n32)cs1 (stereo not drawn) [Example 139, N-[10-chloro-9-cyano-4-oxo-3-(trifluoromethyl)-2,5,7-triazatricyclo[6.4.0.0^2,6]dodeca-1(8),6,9,11-tetraen-3-yl]-2-[(2-methoxyethyl)amino]-1,3-thiazole-4-carboxamide]	1270
Cc1cc2nc3n(c2cc1C)C(NC(=O)CCC1CCCC1)(C(F)(F)F)C(=O)N3 (single isomer, unassigned) [Example 218a, 3-cyclopentyl-N-[10,11-dimethyl-4-oxo-3-(trifluoromethyl)-2,5,7-triazatricyclo[6.4.0.0^2,6]dodeca-1(12),6,8,10-tetraen-3-yl]propanamide]	3130
Cc1cc2nc3n(c2cc1C)C(NC(=O)c1ccccc1)(C(F)(F)F)C(=O)N3 (stereo not drawn) [Example 14, N-[10,11-dimethyl-4-oxo-3-(trifluoromethyl)-2,5,7-triazatricyclo[6.4.0.0^2,6]dodeca-1(8),6,9,11-tetraen-3-yl]benzamide]	3500
Cc1cc2nc3n(c2cc1C)C(NC(=O)[C@@H](C)Oc1cccc(Cl)c1)(C(F)(F)F)C(=O)N3 (single isomer, unassigned) [Example 212b]	4580
